# Results taken from publication PMC9871744 (Cellular and Molecular Gastroenterology and Hepatology, 2022).
# Experiments:
# [1] = system: human androgen receptor (hAR); assay: Androgen receptor transcriptional activation and inhibition assays; assay type: cell-based
# C57BL/6J male mice = assay: Diet-induced obesity; assay type: in vivo
# Hela-9903 cells = assay: Cytotoxicity in the estrogen receptor reporter cells; assay type: cell-based
# [2] = system: chorda tympani (CT) nerve; assay: Chorda tympani; assay type: in vivo; conditions: lingual application in mice; 1, 2, and 4 mmol/L; normalized to NH4Cl 100 mmol/L
compound,measurement,setting,value
"CCCCC/C=C\C/C=C\CCCCCCCCP(=O)(OCC)OCC [NKS-3, diethyl (9Z,12Z)-octadeca-9,12-dien-1-ylphosphonate]",androgenic or antiandrogenic property (conclusion),[1],did not possess androgenic or antiandrogenic property
same,"CD36 (reduced) and GPR120 (high) protein expression in TBC, Western blots","C57BL/6J male mice; HFD animals, FTA intake 16 weeks",reversed this trend
same,locomotor activity,C57BL/6J male mice; HFD mice,increased
same,LA-induced decreases in [Ca2+]i in TBC from obese mice,C57BL/6J male mice; HFD mice given FTA 16 weeks,reversed
same,daily energy expenditure (indirect calorimetry),C57BL/6J male mice; HFD-fed mice,significantly increased
same,leptin mRNA expression in adipose tissues,C57BL/6J male mice; HFD-fed mice,failed to significantly decrease
same,fecal microbiota: bacterial family increased,"C57BL/6J male mice; HFD-fed mice, 16S rRNA sequencing, week 26",Marinifilaceae
same,"adipose tissue mRNA encoding leptin, CD36, TNF-α, and IL6","C57BL/6J male mice; HFD-fed mice, epididymal adipose tissue",down-regulated
same,crown-like structures of adipocytes,"C57BL/6J male mice; obese animals, histology",decreased
same,"release of GLP-1, CCK-1, and PYY into blood circulation","C57BL/6J male mice; obese mice, end of week 26",induced the release
same,cytotoxic concentrations,Hela-9903 cells; Hela-9903 cells,≥ 10 µmol/L
same,highest non-cytotoxic concentration,Hela-9903 cells; estrogen receptor assays,5 µmol/L
same,"CT nerve responses compared with dietary LCFAs (LA, OA)",[2],higher
